Laboratory results as given in patent publication US20260283977A1, “ADIPOCYTE GROWTH INHIBITOR” (WATANABE OYSTER LABORATORY CO., LTD., priority 2023, published 2026).

Experiments:
Assay type in all cases: cell-based, mouse
[1] = test system: 3T3-L1 adipocytes; experiment: Lipid accumulation in 3T3-L1 adipocytes (Oil Red O staining); conditions: DHMBA 0.1, 1, 10 or 100 μM on day 0 and after two days of differentiation culture
Experimental: In order to understand the influence of DHMBA on the differentiation of 3T3-L1 preadipocytes, 3T3-L1 preadipocytes (5×10^4 cells/ml per well of a 24-well plate) were cultured for three days, at which point they reached sub-confluence, in 10% bovine calf serum (BCS). After the cells reached sub-confluence (on day 0), the culture fluid was changed to a DMEM differentiation-inducing culture fluid containing 10% FBS, 1% P/S, 0.5 mM IBMX, 1 μM dexamethasone, and insulin (10 μg/ml), and the cells were cultured for another two days. […]
In an additional experiment to understand the effect of DHMBA on the content of lipids in 3T3-L1 adipocytes, a vehicle (1% ethanol as the final concentration) or DHMBA (0.1, 1, 10, or 100 μM) was included in the differentiation-inducing culture fluid to culture the cells from day 0 of the differentiation-inducing culture to four days later. In order to quantify the lipid content (triglycerides) after the cell culture, the cells in the 24-well plate were gently washed twice with PBS and fixed with 4% formaldehyde dissolved in PBS for 30 minutes. […] Furthermore, in order to quantify the lipid content, the Oil Red stain was extracted with isopropanol. […] The eluate was used to measure the absorbance at 510 nm with a spectrophotometer (μQuant, Bio-Tek Instruments).

[2] = test system: 3T3-L1 adipocytes; experiment: Adipogenesis in 3T3-L1 adipocytes cultured with inhibitors of intracellular signaling pathways (AdipoRed)
Experimental: (§1) In yet another experiment, to search for the involvement of intracellular signaling factors, the culture fluid was substituted with a culture fluid containing DMEM, which contained 10% FBS and insulin (10 μg/ml), and a vehicle (1% ethanol) or DHMBA (1 or 10 μM) two days after the differentiation culture. The cells were cultured for another two days in a culture fluid containing signaling inhibitory factors, such as genistein (1 or 10 μM), Wortmannin (10 or 100 nM), PD98059 (1 or 10 μM), or Bay 11-7082 (1 or 10 nM). After the cell culture, the amount of intracellular lipid (triglyceride) formation was quantified using AdipoRed Assay Reagent (Lonza, Walkersville, MD, USA) [19 to 21]. Fluorescence was measured at an excitation of 485 nm and an emission of 570 nm using a 96-well plate reader (μQuant, Bio-Tek Instruments).

[3] = test system: 3T3-L1 adipocytes; experiment: Adipogenesis in 3T3-L1 adipocytes (AdipoRed Assay Reagent)
Experimental: 3T3-L1 preadipocytes (10^4 cells/0.2 ml per well of a 96-well plate) were cultured for three days, at which point they reached sub-confluence, in DMEM containing 10% BCS and 1% P/S. After the sub-confluence (on day 0), the cells were cultured in a differentiation-inducing culture fluid containing 10% FBS, 1% P/S, 0.5 mM IBMX, and 1 μM dexamethasone with the inclusion of a vehicle (1% ethanol as the final concentration) or DHMBA (0.1, 1, 10, or 100 μM). Two days later, the culture fluid was replaced with a DMEM culture fluid containing insulin (10 μg/ml) without containing 10% FBS or DHMBA, and then, the cells were cultured for another two days.
In another experiment, the cells were cultured in a differentiation culture fluid not containing DHMBA on day 0 of differentiation-inducing culture. Two days later, the culture fluid was replaced with a DMEM culture fluid containing 10% FBS and insulin (10 μg/ml) that contained any of a vehicle (1% ethanol as the final concentration) and DHMBA (0.1, 1, 10, or 100 μM), and then, the cells were cultured for another two days.
as §1

[4] = test system: 3T3-L1 preadipocytes; experiment: Cell death of sub-confluent 3T3-L1 preadipocytes (cell count); conditions: sub-confluent cells cultured another two days; DHMBA 0.1-1000 μM tested, effect at 1000 μM; FIG. 2C
Experimental: In an experiment to measure cell death, 3T3-L1 preadipocytes (1×10^5/ml per well of a 24-well plate) were cultured for three days in a DMEM culture fluid containing 10% BCS and 1% P/S. The cells that reached sub-confluence were cultured for another 48 hours in the presence of a vehicle (1% ethanol as the final concentration) or DHMBA (0.1, 1, 10, 100, or 1000 μM) to examine the variation in the number of cells.
After the culture, adhering cells were separated from each well by adding an aseptic solution containing 0.05% trypsin and EDTA (0.1 ml per well) in PBS (Thermo Fisher Scientific, Waltham, MA, USA) not containing Ca^2+/Mg^2+ and incubating the cells for two minutes. Afterward, 0.9 ml of DMEM containing 10% FBS was added to each well to prepare cell suspensions. In order to measure the number of living cells, a medium (0.1 ml) containing suspension cells was mixed with 0.1 ml of 0.5% trypan blue staining solution. The living cells were counted under a microscope (Olympus MTV-3) using a cell counter (Line Seiki H-102P, Tokyo, Japan) and a hemocytometer (Sigma-Aldrich, St. Louis, Missouri). Two counts were averaged in each measurement. The number of cells was shown as the number per well of a culture plate.

## COc1c(O)cc(CO)cc1O [DHMBA, 3,5-dihydroxy-4-methoxybenzyl alcohol]
[1]; FIG. 4A
  Lipid accumulation (Oil Red O stained images): reduced lipid accumulation
[1]; FIG. 4B
  Lipid (triglyceride) content in the cells (absorbance at 510 nm): decrease was confirmed
[2]; DHMBA 1 or 10 μM with Bay 11-7082 1 or 10 nM, FIG. 6D
  Inhibition of adipogenesis in the presence of Bay 11-7082: further enhanced
[2]; DHMBA 1 or 10 μM with PD98059 1 or 10 μM, FIG. 6C
  Inhibition of adipogenesis in the presence of PD98059: further enhanced
[2]; DHMBA 1 or 10 μM with Wortmannin 10 or 100 nM, FIG. 6B
  Inhibition of adipogenesis in the presence of Wortmannin: further enhanced
[2]; DHMBA 1 or 10 μM with genistein 1 or 10 μM, FIG. 6A
  Adipogenesis in the presence of genistein: inhibited adipogenesis
[3]; DHMBA 1, 10 or 100 μM (0.1 μM also tested), FIG. 5A
  Adipogenesis (intracellular lipid formation), DHMBA zero to four days after the differentiation: suppressed adipogenesis
[3]; DHMBA 1, 10 or 100 μM, FIG. 5B
  Adipogenesis (intracellular lipid formation), DHMBA zero to two days after the differentiation: suppression was also observed
[3]; DHMBA 1, 10 or 100 μM, late stage, FIG. 5C
  Adipogenesis (intracellular lipid formation), DHMBA two to four days after the differentiation: suppression was also observed
[4]
  Cell death (number of cells): reduced
